Patent US11116757B2 (priority 2015, dated 2021)

What follows are compounds tested against DCN1-UBC12 interaction (Homo sapiens (Human), UniProt Q96GG9) (assay: biochemical). Details: TR-FRET IC50.
Chain of DCN1-UBC12 interaction (Q96GG9 60-248 limits assumed): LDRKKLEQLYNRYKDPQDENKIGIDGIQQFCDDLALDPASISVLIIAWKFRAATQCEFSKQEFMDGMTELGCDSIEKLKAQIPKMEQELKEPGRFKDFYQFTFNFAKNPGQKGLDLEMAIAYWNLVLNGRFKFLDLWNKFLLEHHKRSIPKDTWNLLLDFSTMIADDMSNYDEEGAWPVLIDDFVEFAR
Type: binding
`CCCC(C)N1CCC(N(Cc2ccccc2)C(=O)Nc2ccc(F)c(C(F)(F)F)c2)CC1` (centres unmarked) [A57] was tested, and the IC50 was 0.315 µM.

Same assay, conditions: Table 4, commercial compounds; read-out: TR-FRET IC50
Compound `CCc1cccc(NC(=O)C2CCN(C(C)=O)CC2)c1` [C32] has an IC50 of over 67.6 µM.
`O=C(Nc1cccc([N+](=O)[O-])c1)C1CCN(C(=O)c2cccc3ccccc23)CC1` [C64] showed an IC50 of over 67.6 µM.
For `COc1cccc(NC(=O)C2CCN(C(=O)c3ccc(OC)c4ccccc34)CC2)c1` [C59], the IC50 was over 67.6 µM.
In the case of `COc1ccc(OC)c(NC(=O)C2CCN(C(C)=O)CC2)c1` [C33], the IC50 is reported as over 67.6 µM.
Compound `COc1ccc(C(=O)NC2CCN(C(=O)c3ccc(OC)cc3)CC2)cc1` [C71] has an IC50 of over 92.2 µM.
`Cc1ccc(NC(=O)C2CCN(C(=O)c3ccccc3C)CC2)cc1Cl` [C14] was tested, and the IC50 was over 67.6 µM.
`CCc1ccc(NC(=O)C2CCN(C(=O)N3CC(C)Oc4ccccc43)CC2)cc1` (centres unmarked) [C52] was tested, and the IC50 was over 67.6 µM.
For `CCOc1ccc(NC(=O)C2CCN(C(=O)c3ccccc3Cl)CC2)cc1` [C48], the IC50 was over 67.6 µM.
`O=C(Nc1cccc(C(F)(F)F)c1)C1CCN(C(=O)c2cccc(F)c2)CC1` [C10] showed an IC50 of over 42.9 µM.

Same assay, conditions: Table 6, commercial compounds; read-out: TR-FRET IC50
With `CCN1CCN(C(=O)c2cnn(-c3ncc(C)c(-c4cccs4)n3)c2COC)CC1` [E20] the IC50 was 48.2 µM.
With `CN(C)CC(C)(C)CNC(=O)c1cnn(-c2nccc(-c3cccs3)n2)c1C1CC1` [E37] the IC50 was over 67.6 µM.
`CCN(CC)CCNC(=O)c1cnn(-c2nccc(-c3cccs3)n2)c1C(C)C` [E19] gave an IC50 of 42.1 µM.
In the case of `CCN1CCN(C(=O)c2cnn(-c3nccc(-c4cccs4)n3)c2C2CC2)CC1` [E14], the IC50 is reported as 29.9 µM.
For `COCCN1CCN(C(=O)c2cnn(-c3ncc(C)c(-c4cccs4)n3)c2C)CC1` [E32], the IC50 was over 67.6 µM.
`COCc1c(C(=O)N2CCN(C(C)C)CC2)cnn1-c1ncc(C)c(-c2cccs2)n1` [E21] gave an IC50 of 49.2 µM.
`CCN(CCN(C)C)C(=O)c1cnn(-c2ncc(C)c(-c3cccs3)n2)c1C1CC1` [E53] gave an IC50 of over 67.6 µM.
In the case of `CCN(CC)C(=O)c1cnn(-c2ncc(C)c(-c3cccs3)n2)c1C` [E57], the IC50 is reported as over 67.6 µM.
In the case of `Cc1cnc(-n2ncc(C(=O)N3CCN(C(C)C)CC3)c2C2CC2)nc1-c1cccs1` [E40], the IC50 is reported as over 67.6 µM.
`Cc1c(C(=O)NCC(C)(C)CN(C)C)cnn1-c1nccc(-c2cccs2)n1` [E47] gave an IC50 of over 67.6 µM.

Same assay, conditions: Table 7, commercial compounds; read-out: TR-FRET IC50
In the case of `CCCOc1ccc(C2c3c(C)nn(C)c3NC(=O)C2NC(=O)c2cccc(C)c2)cc1OC` (centres unmarked) [F22], the IC50 is reported as over 67.6 µM.
`COc1ccc(C2c3c(C)nn(C)c3NC(=O)C2NC(=O)c2ccc(Cl)cc2)cc1F` (centres unmarked) [F31] was tested, and the IC50 was over 67.6 µM.
For `Cc1nn(C)c2c1C(c1ccc(Br)cc1)C(NC(=O)c1ccc(Cl)cc1)C(=O)N2` (centres unmarked) [F12], the IC50 was over 67.6 µM.

Same assay, conditions: read-out: TR-FRET IC50
`C#CCCCN1CCC(N(Cc2ccccc2NC(=O)CC)C(=O)Nc2ccc(Cl)c(Cl)c2)CC1` [A199] was tested, and the IC50 was over 14.5 µM.
For `CCCC(C)N1CCC(N(Cc2ccccc2)C(=O)Nc2ccc(C(F)(F)F)cc2)CC1` (centres unmarked) [A41], the IC50 was 0.237 µM.
`O=C(Nc1cc(F)cc(C(F)(F)F)c1)N(Cc1ccccc1)C1CCN(Cc2cc[nH]n2)CC1` [A213] was tested, and the IC50 was over 22.5 µM.
Compound `CCCC(C)N1CCC(N(Cc2cccc(CNC(=O)CCl)c2)C(=O)Nc2cccc(C(F)(F)F)c2)CC1` (centres unmarked) [A256] has an IC50 of over 60.4 µM.
In the case of `CCCC(C)N1CCC(N(Cc2ccccc2)C(=O)Nc2ccc(-c3cccc(C(=O)OC)c3)cc2)CC1` (centres unmarked) [A116], the IC50 is reported as 2.37 µM.
Compound `O=C(NC1CCN(Cc2cccc(F)c2)CC1)C(F)(F)F` [A307] has an IC50 of over 98.1 µM.
In the case of `FC(F)(F)c1ccnc(NC2CCN(Cc3ccccc3)CC2)n1` [B124], the IC50 is reported as over 90.4 µM.
`CCCN1CCC(N(CC(C)C)C(=O)Nc2cccc(C(F)(F)F)c2)CC1` [A146, 1-Isobutyl-1-(1-Propylpiperidin-4-yl)-3-(3-(Trifluoromethyl)Phenyl)Urea] showed an IC50 of 4.81 µM.
In the case of `CCCC(C)N1CCC(N(Cc2ccccc2NC(=O)CCl)C(=O)Nc2cccc(C(F)(F)F)c2)CC1` (centres unmarked) [drawing 843], the IC50 is reported as 0.208 µM.
`CCCC(C)N1CCC(N(Cc2ccccc2)C(=O)Nc2ccc(OC)cc2)CC1` (centres unmarked) [A158] was tested, and the IC50 was 7.67 µM.
For `CCCC(C)N1CCC(N(Cc2cccnc2)C(=O)Nc2ccc(Cl)c(Cl)c2)CC1` (centres unmarked) [A16], the IC50 was 0.0905 µM.
Work on `CCCCN(C(=O)Nc1ccc(Cl)c(Cl)c1)C1CCN(C(C)CCC)CC1` (centres unmarked) [A20] yielded an IC50 of 0.116 µM.
Compound `Cc1cccc(CN2CCC(NC(=O)Nc3cccc(C(F)(F)F)c3)CC2)c1` [A155, 1-(1-(3-Methylbenzyl)Piperidin-4-yl)-3-(3-(Trifluoromethyl)Phenyl)Urea] has an IC50 of 6.77 µM.
In the case of `O=C(Nc1cc(F)cc(C(F)(F)F)c1)N(Cc1ccccc1)C1CCN(Cc2cnccn2)CC1` [A226], the IC50 is reported as over 26.6 µM.
`O=C(c1ccc(F)cc1)N1CCCC(c2nc3ccccc3s2)C1` (centres unmarked) [D16] showed an IC50 of over 48.7 µM.
Work on `CC(c1ccccc1)N1CCC(N(Cc2ccccc2)C(=O)Nc2cc(F)cc(C(F)(F)F)c2)CC1` (centres unmarked) [A148] yielded an IC50 of 4.98 µM.
Compound `CCCC(C)N1CCC(N(Cc2ccccc2)C(=O)Nc2cc(C)ccc2F)CC1` (centres unmarked) [A181] has an IC50 of 19.8 µM.
Work on `O=C(Nc1cc(F)cc(C(F)(F)F)c1)N(Cc1ccccc1)C1CCN(Cc2csc3ccccc23)CC1` [A212] yielded an IC50 of over 22.5 µM.
`CCCC(C)N1CCC(N(Cc2ccccc2)C(=O)Nc2cccc(F)c2)CC1` (centres unmarked) [A72] showed an IC50 of 0.621 µM.
Compound `CCCC(C)N1CCC(N(Cc2ccccc2)C(=O)Nc2cccc3cnccc23)CC1` (centres unmarked) [A244] has an IC50 of over 53.6 µM.
With `CCc1ccccc1NC(=O)NC1CCN(Cc2ccccc2)CC1` [B53] the IC50 was over 67.6 µM.
Compound `CCCCN1CCC(N(Cc2ccccc2)C(=O)Nc2cccc(F)c2)CC1` [A136] has an IC50 of 3.57 µM.
Compound `CCCC(C)N1CCC(N(Cc2ccccc2)C(=O)Nc2ccc(I)cc2)CC1` (centres unmarked) [A4] has an IC50 of 0.035 µM.
Compound “1-Benzyl-1-(1-(Propylsulfonyl)Piperidin-4-yl)-3-(3-(Trifluoromethyl)Phenyl)Urea [A79]” has an IC50 of 0.81 µM.
With `CCCC(C)N1CCC(N(Cc2ccccc2)C(=O)Nc2c(OC)cccc2OC)CC1` (centres unmarked) [A299] the IC50 was over 85.7 µM.
Work on `Cc1cccc(NC(=O)NC2CCN(C(=O)c3ccccc3)CC2)c1` [B111] yielded an IC50 of over 73.2 µM.
For `CCCC(C)N1CCC(N(Cc2ccccc2)C(=O)Nc2ccccc2I)CC1` (centres unmarked) [A285], the IC50 was over 72.4 µM.
In the case of `C=CS(=O)(=O)Nc1cccc(CN(C(=O)Nc2cccc(C(F)(F)F)c2)C2CCN(C(C)CCC)CC2)c1` (centres unmarked) [A27], the IC50 is reported as 0.165 µM.
With `CCCC(C)N1CCC(N(Cc2ccccc2)C(=O)Nc2cc(OC)cc(OC)c2)CC1` (centres unmarked) [A273] the IC50 was over 68 µM.
“1-(1-Acryloylpiperidin-4-yl)-1-Benzyl-3-(3-(Trifluoromethyl)Phenyl)Urea [A65]” showed an IC50 of 0.446 µM.
Work on `COc1cccc(CN2CCC(N(Cc3ccccc3)C(=O)Nc3cc(F)cc(C(F)(F)F)c3)CC2)c1` [A231] yielded an IC50 of over 28.9 µM.
`CCCC(C)N1CCC(N(Cc2ccccc2)C(=O)Nc2cc(Cl)c(Cl)cc2F)CC1` (centres unmarked) [A78] gave an IC50 of 0.801 µM.
With `CCCCCCc1ccc(NC(=O)N(Cc2ccccc2)C2CCN(C(C)CCC)CC2)cc1` (centres unmarked) [A19] the IC50 was 0.116 µM.
Compound `O=C(c1ccc(F)cc1)N1CCC(c2nc3ccccc3s2)CC1` [D15] has an IC50 of over 46.2 µM.
`C=CS(=O)(=O)NCCCN(C(=O)Nc1cccc(C(F)(F)F)c1)C1CCN(C(C)CCC)CC1` (centres unmarked) [A220] gave an IC50 of over 24.5 µM.
With `CCCC(C)N1CCC(N(Cc2ccc3c(c2)OCO3)C(=O)Nc2cc(F)cc(C(F)(F)F)c2)CC1` (centres unmarked) [A51] the IC50 was 0.273 µM.
In the case of `CCCC(C)N1CCC(N(Cc2ccccc2)C(=O)Nc2cccc(OC)c2OC)CC1` (centres unmarked) [A250], the IC50 is reported as over 59.8 µM.
With `CCCCN1CCC(N(Cc2ccccc2)C(=O)Nc2ccc(C)c(Cl)c2)CC1` [A28] the IC50 was 0.166 µM.
With `CCCC(C)N1CCC(N(Cc2ccccc2)C(=O)Nc2ccc(O)cc2)CC1` (centres unmarked) [A308] the IC50 was over 98.6 µM.
`CCCC(C)N1CCC(N(Cc2ccccc2)C(=O)Nc2ccc(CC#N)cc2)CC1` (centres unmarked) [A176] showed an IC50 of 13.7 µM.
`CCCC(C)N1CCC(N(Cc2ccccc2)C(=O)Nc2ccccc2Sc2ccccc2)CC1` (centres unmarked) [A303] gave an IC50 of over 89.9 µM.
For `CCCN1CCC(N(CCC(C)C)C(=O)Nc2cccc(C(F)(F)F)c2)CC1` [A130, 1-Isopentyl-1-(1-Propylpiperidin-4-yl)-3-(3-(Trifluoromethyl)Phenyl)Urea], the IC50 was 2.96 µM.
For `CCCC(C)N1CCC(N(Cc2ccccc2)C(=O)Nc2c(C)cccc2C)CC1` (centres unmarked) [A259], the IC50 was over 62.4 µM.
Work on `CCCC(C)N1CCC(N(Cc2ccccc2)C(=O)Nc2ccc3ncccc3c2)CC1` (centres unmarked) [A207] yielded an IC50 of over 21 µM.
For `CCN1CCC(N(Cc2ccco2)C(=O)Nc2ccc(C)c(Cl)c2)CC1` [B6], the IC50 was 6.85 µM.
With `COc1ccccc1NC(=O)N(CCCN1CCC(C)CC1)C1CCN(C(C)=O)CC1` [B96] the IC50 was over 67.6 µM.
`CCCC(C)N1CCC(N(Cc2ccccc2)C(=O)Nc2ccc(O)c(Cl)c2)CC1` (centres unmarked) [A300] showed an IC50 of over 85.8 µM.
`O=C(Nc1cc(F)cc(C(F)(F)F)c1)N(Cc1ccccc1)C1CCN(CCCc2ccccc2)CC1` [A133] gave an IC50 of 3.21 µM.
For `CCCC(C)N1CCC(N(Cc2ccccc2)C(=O)Nc2ccc([N+](=O)[O-])c(C(F)(F)F)c2)CC1` (centres unmarked) [A237], the IC50 was over 48.4 µM.
With `CCCN1CCC(N(Cc2ccco2)C(=O)Nc2cccc(C(F)(F)F)c2)CC1` [A77, 1-(Furan-2-Ylmethyl)-1-(1-Propylpiperidin-4-yl)-3-(3-(Trifluoromethyl)Phenyl)Urea] the IC50 was 0.798 µM.
`CCOc1cc(C(=O)N2CCCC(c3nc4ccccc4s3)C2)cc(Br)c1OC` (centres unmarked) [D28] gave an IC50 of over 67.6 µM.
In the case of `CCCC(C)N1CCC(N(CCCNC(=O)CCl)C(=O)Nc2cccc(C(F)(F)F)c2)CC1` (centres unmarked) [drawing 836], the IC50 is reported as over 53 µM.
For `Cc1cccc(CC(=O)NC2CCN(Cc3ccccc3)CC2)c1` [B21], the IC50 was under 0.0041 µM.
With `CCCC(C)N1CCC(N(Cc2ccccc2)C(=O)Nc2ccc(F)c(-c3nc4ccccc4o3)c2)CC1` (centres unmarked) [A268] the IC50 was over 67.1 µM.
For `CCCC(C)N1CCC(N(Cc2ccccc2)C(=O)Nc2cc(C(F)(F)F)ccc2Cl)CC1` (centres unmarked) [A101], the IC50 was 1.6 µM.
For `Cc1cc(NC(=O)NC2CCN(Cc3ccccc3)CC2)c(C(F)(F)F)o1` [B119], the IC50 was over 79 µM.
With `CCCCN1CCC(N(Cc2ccccc2)C(=O)Nc2ccc(C)s2)CC1` [A182] the IC50 was 21.1 µM.
Work on “1-(1-((1H-Pyrazol-3-yl)Methyl)Piperidin-4-yl)-1-Benzyl-3-(3-(Trifluoromethyl)Phenyl)Urea [A180]” yielded an IC50 of 19.8 µM.
“1-Benzyl-1-(1-(4-Fluorobenzyl)Piperidin-4-yl)-3-(3-(Trifluoromethyl)Phenyl)Urea [A171]” gave an IC50 of 12.7 µM.
For `COc1ccc(C(=O)NCC(=O)N2CCC(c3nc4ccccc4s3)CC2)cc1OC` [D26], the IC50 was over 67.6 µM.
Compound `CCCC(C)N1CCC(N(Cc2ccccc2)C(=O)Nc2ccc(OC)c(F)c2)CC1` (centres unmarked) [A109] has an IC50 of 2.2 µM.
`CCCC(C)N1CCC(N(Cc2ccccc2)C(=O)Nc2ccc(C)cc2F)CC1` (centres unmarked) [A157] gave an IC50 of 7.11 µM.
Compound `CC1CC(N(C)C(=O)Nc2ccccn2)CCN1Cc1ccccc1` (centres unmarked) [B106] has an IC50 of over 71.5 µM.
